Our source for the Emax and DC50 values is patent publication US20260014147A1, “STAT6 DEGRADERS” (Gilead Sciences, Inc., priority 2024, published 2026).

Structures are written as SMILES.

For the assay, the target named is T1, STAT6 (endogenous, HiBiT-tagged) in HeLa LgBiT clone 4.14 cells (Homo sapiens, UniProt P42226).
T1 construct: These cells express endogenous STAT6; host or cells: HeLa LgBiT clone 4.14
T1 sequence (P42226 1-847): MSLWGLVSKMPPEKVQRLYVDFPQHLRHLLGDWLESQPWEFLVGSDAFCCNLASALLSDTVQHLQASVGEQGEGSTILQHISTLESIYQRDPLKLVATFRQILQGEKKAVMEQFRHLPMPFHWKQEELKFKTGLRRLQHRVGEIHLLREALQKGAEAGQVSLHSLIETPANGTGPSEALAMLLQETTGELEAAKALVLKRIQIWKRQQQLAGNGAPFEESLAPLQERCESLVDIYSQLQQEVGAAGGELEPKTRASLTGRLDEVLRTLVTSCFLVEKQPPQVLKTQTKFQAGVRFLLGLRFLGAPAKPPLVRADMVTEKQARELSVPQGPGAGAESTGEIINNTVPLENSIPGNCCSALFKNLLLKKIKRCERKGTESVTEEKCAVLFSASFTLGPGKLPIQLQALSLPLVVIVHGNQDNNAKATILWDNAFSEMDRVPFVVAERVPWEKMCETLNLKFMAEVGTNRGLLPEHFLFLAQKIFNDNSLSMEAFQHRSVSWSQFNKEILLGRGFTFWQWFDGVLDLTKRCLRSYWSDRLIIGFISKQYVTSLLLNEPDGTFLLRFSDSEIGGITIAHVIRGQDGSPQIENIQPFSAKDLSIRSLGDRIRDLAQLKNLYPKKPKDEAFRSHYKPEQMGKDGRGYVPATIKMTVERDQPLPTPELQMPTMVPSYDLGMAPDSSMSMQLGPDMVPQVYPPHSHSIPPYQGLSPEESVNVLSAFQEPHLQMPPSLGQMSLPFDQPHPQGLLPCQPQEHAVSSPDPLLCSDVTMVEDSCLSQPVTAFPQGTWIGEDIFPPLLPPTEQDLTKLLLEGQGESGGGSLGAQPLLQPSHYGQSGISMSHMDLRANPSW
Description: STAT6 Degrader Assay (HiBiT based, HeLa LgBiT clone 4.14 cells, luminescence, DC50). The format is cell-based. To be noted: geometric mean; for Emax: Emax provided for test compounds with <80% Emax (and 2c15), read-out: STAT6 degradation Emax; for DC50: DC50 provided for test compounds with >80% Emax, read-out: STAT6 degradation DC50. As to the method:
This was a HiBit based assay. A HeLa cell line stably transfected with a small protein, LgBit (Large Bit) was obtained from Promega. These cells express endogenous STAT6. A small 11 amino acid gene sequence (HiBiT) was inserted in the STAT6 gene using CRISPR technology. Once STAT6 protein is expressed in the cells, the HiBiT sequence will bind the LgBit in the cells resulting in a functional NanoBiT protein, giving a luminescent tag to STAT6. Single cell clones were prepared and the clone 4.14 was selected for the assay based on that clone showing high luminescence, high STAT6 phosphorylation upon stimulation with IL-4, and inhibition of luminescence when cells were treated with STAT6 siRNA. HeLa LgBiT clone 4.14 cells were suspended in DMEM with 10% FCS, 1% Pen/Strep, Na-pyrovate and Hygromycin B, at a concentration of […]. 5000 cells were added pr well of a 384 well plate and 20 nL of compound was added by Echo® liquid handler. NN6394A (terfenadine, a toxic compound) was added to control wells at 50 µM concentration to establish the assay window. In these wells the cells are dead which equals 100% degradation of STAT6. After 4-24 h of incubation at 37° C. under 5% CO2/95% air, […] substrate (Nano-GLO®) was added to the wells and the plates were centrifuged and incubated for 0.5 h. The luminescence in the wells as a measure of non-degraded STAT6 was measured in a plate reader (BMG Pherastar FSX). The dose-response curves for Examples 2a2, 2t1, 2 h3, and 2r1 are shown below (where percent degradation is plotted vs. test compound concentration in M on a log-scale).
(HiBiT is a short tag that completes a luciferase, so light tracks the accessible tagged protein.)

For orientation: Emax means the size of the effect at its maximum, as opposed to the concentration needed. Turning to `CN(C(=O)c1ccc(C2CCN(Cc3cc4c(-c5ccc6[nH]ncc6c5)ccnc4n3C)CC2)cc1)c1ccc(C2CCN(c3ccc(NC4CCC(=O)NC4=O)cc3)CC2)cc1` (stereo not shown) [Example 2j2, 4-(1-((4-(1H-indazol-5-yl)-1-methyl-1H-pyrrolo[2,3-b]pyridin-2-yl)methyl)piperidin-4-yl)-N-(4-(1-(4-((2,6-dioxopiperidin-3-yl)amino)phenyl)piperidin-4-yl)phenyl)-N-methylbenzamide], the Emax is 40 to 50%. Same read-out and setting: to `Cn1c(CN2CCC(c3ccc(C(=O)N4CCC(CN5CCN(c6ccc(NC7CCC(=O)NC7=O)c(F)c6)CC5)CC4)cc3)CC2)cc2c(-c3ccc4[nH]ncc4c3)ccnc21` (stereo not shown) [Example 2b2, 3-((4-(4-((1-(4-(1-((4-(1H-indazol-5-yl)-1-methyl-1H-pyrrolo[2,3-b]pyridin-2-yl)methyl)piperidin-4-yl)benzoyl)piperidin-4-yl)methyl)piperazin-1-yl)-2-fluorophenyl)amino)piperidine-2,6-dione] belongs 70 to 80%.

Take `COCc1nc2cc(-c3ccnc4c3cc([C@H](C)N3CCC(c5ccc(C(=O)N6CCC(CN7CCN(c8ccc(NC9CCC(=O)NC9=O)c(F)n8)CC7)CC6)cc5)CC3)n4C)ccc2[nH]1` (stereo partly drawn) [Example 2n11, 3-((2-fluoro-6-(4-((1-(4-(1-((S)-1-(4-(2-(methoxymethyl)-1H-benzo[d]-imidazol-5-yl)-1-methyl-1H-pyrrolo[2,3-b]pyridin-2-yl)ethyl)piperidin-4-yl)benzoyl)-piperidin-4-yl)methyl)piperazin-1-yl)pyridin-3-yl)amino)piperidine-2,6-dione]: the Emax lay within 70 to 80%. In general, DC50 refers to the concentration at which degradation of the target reaches its halfway point. With `Cn1c(CN2CCC(c3ccc(C(=O)N4CCC(CN5CCN(c6ccc(NC7CCC(=O)NC7=O)cn6)CC5)CC4)cc3)CC2)cc2c(-c3ccc4[nH]ncc4c3)ccnc21` (stereo not shown) [Example 2n1, 3-((6-(4-((1-(4-(1-((4-(1H-indazol-5-yl)-1-methyl-1H-pyrrolo[2,3-b]pyridin-2-yl)methyl)piperidin-4-yl)benzoyl)piperidin-4-yl)methyl)piperazin-1-yl)pyridin-3-yl)amino)piperidine-2,6-dione], the half-maximal degradation concentration (DC50) was found to be 15.2 nM. Still for that read-out and setting: to `COCc1nc2cc(-c3ccnc4c3cc([C@H](C)N3CCC(c5ccc(C(=O)N6CCC(CN7CCN(c8ccc(NC9CCC(=O)NC9=O)cc8C(F)(F)F)CC7)CC6)cc5)CC3)n4C)ccc2[nH]1` (stereo partly drawn) [Example 2i5, 3-((4-(4-((1-(4-(1-((S)-1-(4-(2-(methoxymethyl)-1H-benzo[d]imidazol-5-yl)-1-methyl-1H-pyrrolo[2,3-b]pyridin-2-yl)ethyl)piperidin-4-yl)benzoyl)piperidin-4-yl)methyl)piperazin-1-yl)-3-(trifluoromethyl)phenyl)amino)piperidine-2,6-dione] belongs 34 nM.

Turning to `Cn1c(CN2CC=C(c3ccc(C(=O)N4CCn5nc(CN6CCC(c7ccc(NC8CCC(=O)NC8=O)cc7F)CC6)cc5C4)cn3)CC2)cc2c(-c3ccc(N)nc3)ccnc21` (stereo not shown) [Example 2c37, 3-((4-(1-((5-(1′-((4-(6-aminopyridin-3-yl)-1-methyl-1H-pyrrolo[2,3-b]pyridin-2-yl)methyl)-1′, 2′, 3′, 6′-tetrahydro-[2,4′-bipyridine]-5-carbonyl)-4,5,6,7-tetrahydropyrazolo[1,5-a]pyrazin-2-yl)methyl)piperidin-4-yl)-3-fluorophenyl)amino)piperidine-2,6-dione], the Emax was less than 20%. In the case of `Cn1c(CN2CCC(c3ccc(C(=O)N4CCC(CN5CCC(N6CCN(c7ccc(NC8CCC(=O)NC8=O)cc7F)CC6)C(F)(F)C5)CC4)cc3)CC2)cc2c(-c3ccc(N)nc3)ccnc21` (stereo not shown) [Example 2p2, 3-((4-(4-(1-((1-(4-(1-((4-(6-aminopyridin-3-yl)-1-methyl-1H-pyrrolo[2,3-b]pyridin-2-yl)-methyl)piperidin-4-yl)benzoyl)piperidin-4-yl)methyl)-3,3-difluoropiperidin-4-yl)piperazin-1-yl)-3-fluorophenyl)amino)piperidine-2,6-dione], the half-maximal degradation concentration (DC50) was determined as 61 nM.

As to `COCc1nc2cc(-c3ccnc4c3cc([C@H](C)N3CCC(c5ccc(C(=O)N6CCC(CN7CCC(c8ccc(NC9CCC(=O)NC9=O)cc8F)C(F)(F)C7)CC6)cc5)CC3)n4C)ccc2[nH]1` (stereo partly drawn) [Example 2m3, 3-((4-(3,3-difluoro-1-((1-(4-(1-((S)-1-(4-(2-(methoxymethyl)-1H-benzo[d]imidazol-5-yl)-1-methyl-1H-pyrrolo[2,3-b]pyridin-2-yl)ethyl)piperidin-4-yl)benzoyl)piperidin-4-yl)methyl)piperidin-4-yl)-3-fluorophenyl)amino)piperidine-2,6-dione], the DC50 was 23.5 nM. For `C[C@@H](c1cc2c(-c3ccc4[nH]ncc4c3)ccnc2n1C)N1CCC(c2ccc(C(=O)N3CCC(CN4CCN(c5ccc(NC6CCC(=O)NC6=O)cc5F)CC4)CC3)cc2)CC1` (stereo partly drawn) [Example 2c17, 3-((4-(4-((1-(4-(1-((S)-1-(4-(1H-indazol-5-yl)-1-methyl-1H-pyrrolo[2,3-b]pyridin-2-yl)-ethyl)piperidin-4-yl)benzoyl)piperidin-4-yl)methyl)piperazin-1-yl)-3-fluorophenyl)amino)piperidine-2,6-dione], the DC50 amounted to 2.7 nM. Same read-out and setting: to `CNc1ccc(-c2ccnc3c2cc([C@H](C)N2CCC(c4ccc(C(=O)N5CCn6nc(CN7CCC(c8ccc(N[C@H]9CCC(=O)NC9=O)cc8F)CC7)cc6C5)cc4)CC2)n3C)cn1` (single isomer, unassigned) [Example 2c42] belongs 5.4 nM. Take `Cn1c(CN2CCC(c3ccc(C(=O)N4CCn5c(CN6CCC(c7ccc(NC8CCC(=O)NC8=O)cc7F)CC6)nnc5C4)cc3)CC2)cc2c(-c3ccc(N)nc3)ccnc21` (stereo not shown) [Example 2q1, 3-((4-(1-((7-(4-(1-((4-(6-aminopyridin-3-yl)-1-methyl-1H-pyrrolo[2,3-b]pyridin-2-yl)methyl)piperidin-4-yl)benzoyl)-5,6,7,8-tetrahydro-[1,2,4]triazolo[4,3-a]pyrazin-3-yl)methyl)piperidin-4-yl)-3-fluorophenyl)amino)piperidine-2,6-dione]: the Emax fell in the range of 40 to 50%.

Take `Cn1c(CN2CCC(c3ccc(C(=O)N4CCC(CN5CCC(N6CCN(c7ccc(NC8CCC(=O)NC8=O)cc7F)CC6)C(F)(F)C5)CC4)cc3)CC2)cc2c(-c3ccc4[nH]ncc4c3)ccnc21` (stereo not shown) [Example 2p1, 3-((4-(4-(1-((1-(4-(1-((4-(1H-indazol-5-yl)-1-methyl-1H-pyrrolo[2,3-b]pyridin-2-yl)methyl)-piperidin-4-yl)benzoyl)piperidin-4-yl)methyl)-3,3-difluoropiperidin-4-yl)piperazin-1-yl)-3-fluorophenyl)-amino)piperidine-2,6-dione]: the half-maximal degradation concentration (DC50) stood at 36.9 nM. With `Cn1c(CN2CC=C(c3ccc(C(=O)N4CCn5nc(CN6CCC(c7ccc(NC8CCC(=O)NC8=O)cc7F)CC6)cc5C4)cn3)CC2)cc2c(-c3ccc(N)nn3)ccnc21` (stereo not shown) [Example 2c38, 3-((4-(1-((5-(1′-((4-(6-aminopyridazin-3-yl)-1-methyl-1H-pyrrolo[2,3-b]pyridin-2-yl)methyl)-1′, 2′, 3′, 6′-tetrahydro-[2,4′-bipyridine]-5-carbonyl)-4,5,6,7-tetrahydropyrazolo[1,5-a]pyrazin-2-yl)methyl)piperidin-4-yl)-3-fluorophenyl)amino)piperidine-2,6-dione], the Emax was less than 20%.
